Source: patent US7960130B2, “Method for activation of transient receptor potential cation channel, subfamily A, member 1 using acetaldehyde” (Korea University Industry and Academy Cooperation Foundation, priority 2008, dated 2011)

Experiments:
Assay type in all cases: cell-based
Conditions in all cases: 1 mM acetaldehyde
TRPA1 = experiment: Calcium imaging of TRP transfected cell lines treated with acetaldehyde (TRPA1)
Source text: (§1) HEK293T cell line (ATCC CRL-11268) was transiently transfected with plasmid DNA containing polynucleotide encoding hTRPA1 (SEQ. ID. NO: 1), rTRPV2 (SEQ. ID. NO: 2), rTRPV1 (SEQ. ID. NO: 3), mTRPV4 (SEQ. ID. NO: 4), mTRPA1 (SEQ. ID. NO: 5), hTRPV3 (SEQ. ID. NO: 6) or mTRPM8 (SEQ. ID. NO: 7).
(§2) Particularly, the HEK293T cell line was transiently transfected with individual TRP channel plasmid (pcDNA3.1 containing polynucleotide encoding hTRPA1, rTRPV2, rTRPV1 or mTRPV4; pcDNA5/FRT containing polynucleotide encoding mTRPA1, hTRPV3 or mTRPM8) 3 μg per 35-mm dish and 600 ng/well of pcDNA3 (Invitrogen Corp., USA; containing green fluorescent protein (GFP) cDNA) using Fugene6 (Roche Diagnostics, USA) according to manufacturer's instruction. The transformed cells were cultured in DMEM/F12 containing 10% FBS and 1% penicillin/streptomycin in a CO2 incubator for 24 hours. The cells were replated onto poly-L-lysine-coated glass coverslips, followed by further culture for 10-24 hours.
(§3) Particularly, the transfected cell line of Example <4-1> was loaded with Fluo-3AM (5 μM; Sigma Aldrich, USA) in the bath solution (140 mM NaCl, 5 mM KCl, 2 mM CaCl2, 1 mM MgCl2, 10 mM HEPES; adjusted to pH 7.4 with NaOH) containing 0.02% pluronic acid (Invitrogen, USA). […]

TRPV4 = target: T1, TRPV4 (Mus musculus, UniProt Q9EPK8); experiment: Calcium imaging of TRP transfected cell lines treated with acetaldehyde (TRPV4)
T1 construct: expressed in transfected cells; host or cells: HEK293T (ATCC CRL-11268), pcDNA3.1
T1 sequence (Q9EPK8 whole entry): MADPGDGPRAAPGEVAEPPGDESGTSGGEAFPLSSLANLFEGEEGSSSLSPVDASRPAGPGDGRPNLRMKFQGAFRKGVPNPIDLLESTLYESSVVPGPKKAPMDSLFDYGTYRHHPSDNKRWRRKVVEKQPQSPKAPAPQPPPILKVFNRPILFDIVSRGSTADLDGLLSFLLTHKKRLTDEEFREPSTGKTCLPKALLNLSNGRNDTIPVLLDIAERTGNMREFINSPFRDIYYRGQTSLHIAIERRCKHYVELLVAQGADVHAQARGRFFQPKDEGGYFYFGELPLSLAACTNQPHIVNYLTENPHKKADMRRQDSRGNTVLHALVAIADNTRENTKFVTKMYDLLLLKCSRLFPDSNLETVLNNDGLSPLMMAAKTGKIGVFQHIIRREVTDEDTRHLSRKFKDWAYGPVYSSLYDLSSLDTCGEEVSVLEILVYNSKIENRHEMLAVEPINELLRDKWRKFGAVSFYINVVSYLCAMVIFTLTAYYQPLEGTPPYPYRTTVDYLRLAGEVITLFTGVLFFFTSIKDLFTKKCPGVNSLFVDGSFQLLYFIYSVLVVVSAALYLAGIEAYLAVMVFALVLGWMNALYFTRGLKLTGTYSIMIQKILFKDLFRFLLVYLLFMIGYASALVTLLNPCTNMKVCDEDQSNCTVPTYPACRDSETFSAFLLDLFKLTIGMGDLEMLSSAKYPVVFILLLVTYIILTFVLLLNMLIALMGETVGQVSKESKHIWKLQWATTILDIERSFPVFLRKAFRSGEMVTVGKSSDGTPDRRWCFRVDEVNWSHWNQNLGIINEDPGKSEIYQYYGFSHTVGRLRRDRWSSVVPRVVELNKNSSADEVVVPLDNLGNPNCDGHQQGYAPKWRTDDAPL
Source text: as §1, §2, §3

TRPV3 = target: T2, TRPV3 (Homo sapiens, UniProt Q8NET8); experiment: Calcium imaging of TRP transfected cell lines treated with acetaldehyde (TRPV3)
T2 construct: expressed in transfected cells; host or cells: HEK293T (ATCC CRL-11268), pcDNA5/FRT
T2 sequence (Q8NET8 1-790): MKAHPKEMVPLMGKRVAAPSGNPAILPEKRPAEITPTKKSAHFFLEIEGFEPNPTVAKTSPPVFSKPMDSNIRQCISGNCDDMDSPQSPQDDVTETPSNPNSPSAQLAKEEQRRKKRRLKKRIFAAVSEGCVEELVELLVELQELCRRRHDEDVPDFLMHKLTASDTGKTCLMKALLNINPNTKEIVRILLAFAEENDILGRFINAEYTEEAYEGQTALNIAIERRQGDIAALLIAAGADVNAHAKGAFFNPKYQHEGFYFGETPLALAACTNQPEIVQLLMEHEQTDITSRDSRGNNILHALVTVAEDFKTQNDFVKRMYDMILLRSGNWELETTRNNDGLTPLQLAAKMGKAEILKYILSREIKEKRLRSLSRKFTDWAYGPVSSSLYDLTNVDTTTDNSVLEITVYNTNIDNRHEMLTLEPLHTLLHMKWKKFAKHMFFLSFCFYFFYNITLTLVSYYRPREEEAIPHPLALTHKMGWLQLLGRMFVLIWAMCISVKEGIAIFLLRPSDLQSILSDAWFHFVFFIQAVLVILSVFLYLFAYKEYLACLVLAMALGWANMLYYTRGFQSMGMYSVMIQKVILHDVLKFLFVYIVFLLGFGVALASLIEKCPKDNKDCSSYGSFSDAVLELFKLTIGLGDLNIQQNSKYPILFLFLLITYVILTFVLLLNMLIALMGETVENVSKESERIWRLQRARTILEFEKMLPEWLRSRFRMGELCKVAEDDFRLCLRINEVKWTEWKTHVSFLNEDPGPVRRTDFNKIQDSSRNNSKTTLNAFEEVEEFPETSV
Source text: as §1, §2, §3

TRPV2 = target: T3, TRPV2 (Rattus norvegicus, UniProt Q9WUD2, A713V/L151P/T158I); experiment: Calcium imaging of TRP transfected cell lines treated with acetaldehyde (TRPV2)
T3 construct: expressed in transfected cells; host or cells: HEK293T (ATCC CRL-11268), pcDNA3.1
T3 sequence (Q9WUD2 1-761 L151P/T158I/A713V): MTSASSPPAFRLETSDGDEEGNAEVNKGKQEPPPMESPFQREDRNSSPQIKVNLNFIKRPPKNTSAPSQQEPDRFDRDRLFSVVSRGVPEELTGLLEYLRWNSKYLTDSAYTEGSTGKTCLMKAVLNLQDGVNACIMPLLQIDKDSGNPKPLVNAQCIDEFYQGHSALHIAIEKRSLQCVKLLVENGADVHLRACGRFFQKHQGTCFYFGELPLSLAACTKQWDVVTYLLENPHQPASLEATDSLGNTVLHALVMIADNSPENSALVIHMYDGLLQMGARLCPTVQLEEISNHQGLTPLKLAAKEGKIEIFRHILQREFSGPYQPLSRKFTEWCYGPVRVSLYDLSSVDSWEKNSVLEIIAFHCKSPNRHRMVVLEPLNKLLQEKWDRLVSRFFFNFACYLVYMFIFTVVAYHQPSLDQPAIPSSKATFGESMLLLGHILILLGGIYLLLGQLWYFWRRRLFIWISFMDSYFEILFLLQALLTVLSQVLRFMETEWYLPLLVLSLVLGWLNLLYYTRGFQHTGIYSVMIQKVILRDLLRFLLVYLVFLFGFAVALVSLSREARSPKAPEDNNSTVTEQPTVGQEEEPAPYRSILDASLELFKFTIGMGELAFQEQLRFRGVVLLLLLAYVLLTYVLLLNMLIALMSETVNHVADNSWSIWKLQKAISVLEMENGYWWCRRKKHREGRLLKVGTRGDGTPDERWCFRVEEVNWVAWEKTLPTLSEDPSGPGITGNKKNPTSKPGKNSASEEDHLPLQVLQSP
Source text: as §1, §2, §3

CC=O [acetaldehyde]
only TRPA1 was activated: activation of TRPA1 by acetaldehyde (TRPA1) | activation of TRPV4 by acetaldehyde (TRPV4) | activation of TRPV3 by acetaldehyde (TRPV3) | activation of TRPV2 by acetaldehyde (TRPV2)
